Laboratory results from US10105357B2, “Indication of antibiotic drugs for preparation of cancer inhibition pharmaceutical composition” (LAUNX BIOMEDICAL CO., LTD., priority 2014, dated 2018).
Where a name gives a salt, the structure may show the parent alone. Read-outs that look alike come from different tables or passages of the source.

Columns and labels:
Format in all cases: cell-based, human
[1] = system: cancer cell lines; experiment: Cell viability analysis (WST-1) on cancer cell lines; conditions: drug 10 μM, 72 hours, WST-1; Table 3
[2] = system: HI650 (Lung Adenocarcinoma); experiment: Cell viability analysis, lung cancer HI650; conditions: Homo sapiens, NCI-H1650, 72 h
[3] = system: A549 (Lung Adenocarcinoma); experiment: Cell viability analysis, lung cancer A549; conditions: Homo sapiens, A549, 72 h
[4] = system: AGS (Gastric Adenocarcinoma); experiment: Cell viability analysis, gastric cancer AGS; conditions: Homo sapiens, 72 h
[5] = system: MKN-45 (Gastric Adenocarcinoma); experiment: Cell viability analysis, gastric cancer MKN-45; conditions: Homo sapiens, MKN-45, 72 h
[6] = system: HepG2 (Hepatocellular Carcinoma); experiment: Cell viability analysis, hepatic cancer HepG2; conditions: Homo sapiens, HepG2, 72 h
[7] = system: Hep3B (hepatocellular carcinoma); experiment: Cell viability analysis, hepatic cancer Hep3B; conditions: Homo sapiens, 72 h; Hep3B; repeated experiment; read-out: The results of antibiotic drug inhibiting cancer cell lines (cell viability analysis), Hep3B
[8] = system: LoVo (Colorectal Adenocarcinoma); experiment: Cell viability analysis, colon cancer LoVo; conditions: Homo sapiens, LoVo, 72 h
[9] = system: A375 (Amelanotic Melanoma); experiment: Cell viability analysis, skin cancer A375; conditions: Homo sapiens, A-375, 72 h
[10] = system: BCC (basal cell carcinoma); experiment: Cell viability analysis, skin cancer BCC; conditions: Homo sapiens, 72 h; BCC; repeated experiment; read-out: The results of antibiotic drug inhibiting cancer cell lines (cell viability analysis), BCC
[11] = system: HeLa (Cervix Adenocarcinoma); experiment: Cell viability analysis, cervical cancer HeLa; conditions: Homo sapiens, HeLa, 72 h, HeLa
[12] = system: C-33A (Cervical carcinoma); experiment: Cell viability analysis, cervical cancer C-33A; conditions: Homo sapiens, 72 h; C-33A; repeated experiment; read-out: The results of antibiotic drug inhibiting cancer cell lines (cell viability analysis), C-33A
[13] = system: PC3 (p53−) (Prostate Adenocarcinoma); experiment: Cell viability analysis, prostate cancer PC3; conditions: Homo sapiens, 72 h
[14] = system: TSGH-8301 (Urinary Bladder Carcinoma); experiment: Cell viability analysis, bladder cancer TSGH-8301; conditions: Homo sapiens, 72 h, drug 10 μM, 72 hours, WST-1, OD450 nm; read-out: cell viability (survival rate), TSGH
[15] = system: T24; experiment: Cell viability analysis, bladder cancer T24; conditions: Homo sapiens, T-24, 72 h; T24; repeated experiment; read-out: The results of antibiotic drug inhibiting cancer cell lines (cell viability analysis), T24
[16] = system: MCF7 (Mammary Gland, Adenocarcinoma); experiment: Cell viability analysis, breast cancer MCF7; conditions: Homo sapiens, MCF7, 72 h
[17] = system: MDA-MB-231 (Mammary Gland, Adenocarcinoma); experiment: Cell viability analysis, breast cancer MDA-MB-231; conditions: Homo sapiens, MDA-MB-231, 72 h; MDA-MB231; repeated experiment; read-out: The results of antibiotic drug inhibiting cancer cell lines (cell viability analysis), MDA-MB231
[18] = system: BxPC-3; experiment: Cell viability analysis, pancreatic cancer BxPC-3; conditions: Homo sapiens, 72 h; BxPC-3; repeated experiment; read-out: The results of antibiotic drug inhibiting cancer cell lines (cell viability analysis), BxPC-3
[19] = system: AsPC-1; experiment: Cell viability analysis, pancreatic cancer AsPC-1; conditions: Homo sapiens, ASPC1, 72 h; AsPC-1; repeated experiment; read-out: The results of antibiotic drug inhibiting cancer cell lines (cell viability analysis), AsPC-1
[20] = system: NIH: OVCAR-3; experiment: Cell viability analysis, ovarian cancer NIH: OVCAR-3; conditions: Homo sapiens, 72 h; NIH-OVCAR-3; repeated experiment; read-out: The results of antibiotic drug inhibiting cancer cell lines (cell viability analysis), NIH-OVCAR-3
[21] = system: TOV-21G; experiment: Cell viability analysis, ovarian cancer TOV-21G; conditions: Homo sapiens, TOV21G, 72 h; TOV-21G; repeated experiment; read-out: The results of antibiotic drug inhibiting cancer cell lines (cell viability analysis), TOV-21G
[22] = system: SAS (Tongue squamous cell carcinoma); experiment: Cell viability analysis, tongue cancer SAS; conditions: Homo sapiens, 72 h; SAS; repeated experiment; read-out: The results of antibiotic drug inhibiting cancer cell lines (cell viability analysis), SAS
[23] = system: U-2OS; experiment: Cell viability analysis, osteosarcoma U-2OS; conditions: Homo sapiens, 72 h; U2OS; repeated experiment; read-out: The results of antibiotic drug inhibiting cancer cell lines (cell viability analysis), U2OS
[24] = system: HL-60 (Acute Promyelocytic Leukemia); experiment: Cell viability analysis, leukemia HL-60; conditions: Homo sapiens, HL-60, 72 h, drug 10 μM, 72 hours, WST-1, OD450 nm; read-out: cell viability (survival rate), HL-60

For CCc1cc2c(cc1CC)CC(NC[C@H](O)c1ccc(O)c3[nH]c(=O)ccc13)C2 [Indacaterol Maleate], which “inhibition effect on different cancer cell lines” value [1] is on record?
The value was “significant inhibition effect”.

And the viability at 10 µM ([2]; H1650, repeated experiment, read-out: The results of antibiotic drug inhibiting cancer cell lines (cell viability analysis), H1650)?
Its viability at 10 µM is 86.6%.

And the viability at 10 µM ([2]; drug 10 μM, 72 hours, WST-1, OD450 nm, read-out: cell viability (survival rate), H1650)?
Its viability at 10 µM is 36%.

What about the viability at 10 µM ([3]; A549, repeated experiment, read-out: The results of antibiotic drug inhibiting cancer cell lines (cell viability analysis), A549) of the same compound?
Its viability at 10 µM is 79.6%.

What about the viability at 10 µM ([3]; drug 10 μM, 72 hours, WST-1, OD450 nm, read-out: cell viability (survival rate), A549) of the same compound?
The viability at 10 µM was 65.1%.

And the viability at 10 µM ([4]; AGS, repeated experiment, read-out: The results of antibiotic drug inhibiting cancer cell lines (cell viability analysis), AGS)?
Its viability at 10 µM is 50.2%.

And the viability at 10 µM ([4]; drug 10 μM, 72 hours, WST-1, OD450 nm, read-out: cell viability (survival rate), AGS)?
The viability at 10 µM was 54.1%.

What about the viability at 10 µM ([5]; MKN-45, repeated experiment, read-out: The results of antibiotic drug inhibiting cancer cell lines (cell viability analysis), MKN-45) of the same compound?
The viability at 10 µM was 84.5%.

And the viability at 10 µM ([5]; drug 10 μM, 72 hours, WST-1, OD450 nm, read-out: cell viability (survival rate), MKN-45)?
Its viability at 10 µM is 30.3%.

And the viability at 10 µM ([6]; HepG2, repeated experiment, read-out: The results of antibiotic drug inhibiting cancer cell lines (cell viability analysis), HepG2)?
The viability at 10 µM was 84.4%.

What about the viability at 10 µM ([6]; drug 10 μM, 72 hours, WST-1, OD450 nm, read-out: cell viability (survival rate), HepG2) of the same compound?
Its viability at 10 µM is 81.2%.

What about the viability at 10 µM [7] of the same compound?
Its viability at 10 µM is 97.6%.

And the viability at 10 µM ([8]; read-out: The results of antibiotic drug inhibiting cancer cell lines (cell viability analysis), LoVo, repeated experiment)?
Its viability at 10 µM is 79.1%.

And the viability at 10 µM ([8]; read-out: cell viability (survival rate), LoVo, drug 10 μM, 72 hours, WST-1, OD450 nm)?
The viability at 10 µM was 61.4%.

What about the viability at 10 µM ([9]; A375, repeated experiment, read-out: The results of antibiotic drug inhibiting cancer cell lines (cell viability analysis), A375) of the same compound?
Its viability at 10 µM is 87.2%.

What about the viability at 10 µM ([9]; drug 10 μM, 72 hours, WST-1, OD450 nm, read-out: cell viability (survival rate), A375) of the same compound?
Its viability at 10 µM is 45.7%.

And the viability at 10 µM [10]?
The viability at 10 µM was 82.1%.

And the viability at 10 µM ([11]; repeated experiment, read-out: The results of antibiotic drug inhibiting cancer cell lines (cell viability analysis), HeLa)?
Its viability at 10 µM is 96.6%.

And the viability at 10 µM ([11]; drug 10 μM, 72 hours, WST-1, OD450 nm, read-out: cell viability (survival rate), HeLa)?
The viability at 10 µM was 71.8%.

What about the viability at 10 µM [12] of the same compound?
The viability at 10 µM was 94.3%.

And the viability at 10 µM ([13]; PC-3, repeated experiment, read-out: The results of antibiotic drug inhibiting cancer cell lines (cell viability analysis), PC-3)?
The viability at 10 µM was 100%.

And the viability at 10 µM ([13]; drug 10 μM, 72 hours, WST-1, OD450 nm, read-out: cell viability (survival rate), PC3)?
Its viability at 10 µM is 55.5%.

And the viability at 10 µM [14]?
Its viability at 10 µM is 56%.

And the viability at 10 µM [15]?
The viability at 10 µM was 122%.

What about the viability at 10 µM ([16]; MCF-7, repeated experiment, read-out: The results of antibiotic drug inhibiting cancer cell lines (cell viability analysis), MCF-7) of the same compound?
The viability at 10 µM was 72.5%.

What about the viability at 10 µM ([16]; drug 10 μM, 72 hours, WST-1, OD450 nm, read-out: cell viability (survival rate), MCF7) of the same compound?
Its viability at 10 µM is 68.7%.

And the viability at 10 µM [17]?
Its viability at 10 µM is 103%.

What about the viability at 10 µM [18] of the same compound?
Its viability at 10 µM is 91.4%.

And the viability at 10 µM [19]?
The viability at 10 µM was 85.4%.

What about the viability at 10 µM [20] of the same compound?
Its viability at 10 µM is 79.3%.

What about the viability at 10 µM [21] of the same compound?
The viability at 10 µM was 95.3%.

And the viability at 10 µM [22]?
The viability at 10 µM was 61.7%.

What about the viability at 10 µM [23] of the same compound?
The viability at 10 µM was 62.6%.

And the viability at 10 µM [24]?
Its viability at 10 µM is 87.2%.
